Like-named read-outs stand apart in the source and are kept apart here. Blank lines part the entries; values can stand above or below the compound they belong to.
Columns and labels:
Aqueous dispersibility = type: physicochemical; conditions: USP-purified water; no heat, detergents, co-solvents
Text: In some embodiments, highly water-dispersible C40 carotenoid derivatives may include natural source RRR-lutein (β,ε-carotene-3,3′-diol) derivatives. Derivatives may be synthesized by esterification with inorganic phosphate and succinic acid, respectively, and subsequently converted to the sodium salts. Deep orange, evenly colored aqueous suspensions were obtained after addition of these derivatives to USP-purified water. […] Aqueous suspensions may be obtained without the addition of heat, detergents, co-solvents, or other additives.
Disodium disuccinate astaxanthin (DDA; see FIG. 1B) was synthesized from commercially available crystalline astaxanthin (Buckton Scott, India) as previously described in Frey, et al. (“The efficient synthesis of disodium disuccinate astaxanthin (Cardax).” Org Process Res Dev 8: 796-801, 2004.). The final product purity was 97% (as area under the curve) by HPLC analysis. DDA was dissolved directly in sterile-filtered deionized water. The maximum aqueous dispersibility of DDA is approximately 10 mM, or 8.64 mg/ml. Vehicle consisted of isotonic sterile 0.9% NaCl solution.

[1] = tested on: human umbilical vein endothelial cells (HUVEC); test: Calcium ionophore (CaI)-stimulated total nitric oxide release from HUVEC; type: cell-based; conditions: 3S,3′S-AST 5.0 μM, clopidogrel 1.0 μM, alone or in combination; FIG. 5
Description: (§1) Human umbilical vein endothelial cells (HUVECs) were isolated into primary cultures from white female donors by Clonetics (San Diego, Calif.), essentially as described (Mason et al. 2005). All donors were reported to be healthy and none had pregnancy or prenatal complications. All measurements were recorded in vitro using a sensitive porphyrinic probe, also as previously described. HUVEC cells were grown in Ham's F12K medium with 2 mM L-glutamine adjusted to contain 1.5 g/L sodium bicarbonate and supplemented with 0.1 mg/mL heparin and 0.03-0.05 mg/mL endothelial cell growth supplement (ECGS) plus 10% fetal bovine serum. The HUVEC cells were kept in an atmosphere of elevated CO2 concentration (5%).
All measurements of NO release were conducted in Hank's balanced salt solution (HBSS) at 37° C. The sensor operated with a three-electrode system: nanosensor (working electrode), saturated calomel electrode (reference electrode), and platinum wire (counter electrode, 0.5 mm diameter). The three electrodes were connected to a potentiostat/galvanostat PAR273. […] The current (amps) proportional to the NO concentration was measured with the sensor, which operated in amperometric mode at a constant potential of 0.63 V. Data were acquired with the use of custom software. Amperograms (current vs. time curves) were recorded with a Guniry FAS1 Femtostat (Warminster, Pa.).

[2] = tested on: human umbilical vein endothelial cells (HUVEC); test: Calcium ionophore (CaI)-stimulated total peroxynitrite release from HUVEC; type: cell-based; conditions: 3S,3′S-AST 5.0 μM, clopidogrel 1.0 μM, alone or in combination; FIG. 6
Description: as §1

[3] = tested on: human umbilical vein endothelial cells (HUVEC); test: CaI-stimulated NO/OONO- release ratio from HUVEC; type: cell-based; conditions: 3S,3′S-AST 5.0 μM, clopidogrel 1.0 μM, alone or in combination; FIG. 7
Description: as §1

vascular platelets = test: Platelet-derived nitric oxide (NO) release after IP3 stimulation, NO nanosensor; type: cell-based, Wistar-Kyoto (WKY) rats
Description: Wistar-Kyoto (WKY) rats were anaesthetized and blood was collected directly from the heart using a 10 mL syringe that contained 3.8% sodium citrate (9:1, v v^−1). […] The platelet rich plasma (PRP) was then removed by aspiration. […] The number of platelets was counted and adjusted to 3.5×10^8 per mL with Tyrode-HEPES buffer. The platelets were incubated in an aggregometer with a NO nanosensor (working electrode) placed in the platelet suspension. […] All measurements of NO release were conducted in Hank's balanced salt solution (HBSS) at 37° C. The sensor operated with a three-electrode system: nanosensor (working electrode), saturated calomel electrode (reference electrode), and platinum wire (counter electrode, 0.5 mm diameter). The three electrodes were connected to a potentiostat/galvanostat PAR273. The baseline was stabilized after ˜20 s. With a nanoinjector, the test compounds were injected onto the surface of the cells following solubilization in buffer. In experiments with multiple compounds, the compounds were injected simultaneously. […] Data were acquired with the use of custom software. Amperograms (current vs. time curves) were recorded with a Guniry FAS1 Femtostat (Warminster, Pa.). The nanosensor for NO was calibrated using saturated solution (concentration 1.82 mM verified with the coulometric method). […] The data were presented as mean±S.D. for each of the triplicate measurements. The data (calculation and plotting) were transferred to Microcal Origin Software (OriginLab Corp., Northampton, Mass.). […] The NO concentration was calculated using current responses obtained from standard NO solution (prepared from […] stock solution, saturated aqueous NO solution).

[4] = parameters: species or system rats; conditions: in vivo, po, 500 mg/kg
Description: In one experiment, astaxanthin; all-trans 3S,3'S-astaxanthin diester disuccinate disodium salt (hereinafter “ADS”); and all-trans 3S,3'S-astaxanthin diester […] tetrahydrochloride salt (hereinafter “ADL”) were administered orally to separate rats as a lipid suspension. A single dose that included 500 mg/kg of the carotenoid/carotenoid derivative was administered to each rat. (See FIG. 20, PK Study #CXPK07201). Plasma from each of the rats was collected 4 hours after ingestion and 8 hours after ingestion and all samples were analyzed by high performance liquid chromatography (“HPLC”). HPLC analysis was used to detect the presence of free underivatized carotenoid (e.g., in this example, astaxanthin) in the plasma. HPLC chromatograms were collected for each plasma sample taken.

[5] = Dog PK of astaxanthin derivatives (CXPK07402, 07404, 07405, 07406)
Description: In another experiment, ADL was administered to non-naïve beagle dogs orally (as an aqueous suspension containing 0.5% carboxymethylcellulose) and intravenously as an aqueous solution. Oral doses that included 10 mg/kg of the carotenoid derivative, 100 mg/kg of the carotenoid derivative, and 500 mg/kg of the carotenoid derivative were administered to each dog. The intravenous dosage was 5 mg/kg. (See FIG. 20, PK Study #CXPK07402). For each carotenoid derivative given to the dogs in this example, the amount of all astaxanthin isomers, the amount of trans astaxanthin isomers, and the amount of cis astaxanthin isomers in the plasma was determined at predefined time intervals for 3 days (72 hours).
In another experiment, ADL was administered to naïve beagle dogs orally (as an aqueous suspension containing 0.5% carboxymethylcellulose) twice a day for six days. Each oral dose included 75 mg/kg of the carotenoid derivative. (See FIG. 20, PK Study #CXPK07404). For each carotenoid derivative given to the dogs in this example, the amount of all astaxanthin isomers, the amount of trans astaxanthin isomers, and the amount of cis astaxanthin isomers in the plasma was determined at predefined time intervals for 6 days.
In another experiment, all-trans 3S,3′ S-astaxanthin diester di-beta-alanine dihydrochloride salt (hereinafter “ADA”); ADG; ADL; ADSa; and ADS were administered orally to separate non-naïve dogs as a aqueous suspension containing 0.5% carboxymethylcellulose. A single dose that included 20 mg/kg of the carotenoid derivative was administered to each dog. (See FIG. 20, PK Study #CXPK07405). For each carotenoid derivative given to the dogs in this example, the amount of all astaxanthin isomers was determined at predefined time intervals for 3 days (72 hours).
In another experiment, ADG or ADSa was administered to non-naïve beagle dogs orally (as an aqueous suspension containing 0.5% carboxymethylcellulose). Oral doses included either 50 mg/kg of the carotenoid derivative or 100 mg/kg of the carotenoid derivative. (See FIG. 20, PK Study #CXPK07406). For each carotenoid derivative given to the dogs in this example, the amount of all astaxanthin isomers, the amount of trans astaxanthin isomers, and the amount of cis astaxanthin isomers in the plasma was determined at predefined time intervals for 3 days (72 hours).

[6] = rat, in vivo
Description: In a another experiment, all-trans 3S,3′S-astaxanthin diester diglycinate dihydrochloride salt (hereinafter “ADG”); all-trans 3S,3′S-astaxanthin diester disarcosinate dihydrochloride salt (hereinafter “ADSa”); and ADL were administered orally to separate rats as a aqueous suspension containing 0.5% carboxymethylcellulose. A single dose that included 40 mg/kg of the carotenoid derivative was administered to each rat. (See FIG. 20, PK Study #CXPK07202). For each carotenoid derivative given to the rats in this example, the amount of all astaxanthin isomers, the amount of trans astaxanthin isomers, and the amount of cis astaxanthin isomers in the plasma was determined at predefined time intervals for 3 days (72 hours).
In another experiment, ADG; ADSa; and ADL were administered to separate rats intravenously as an aqueous solution. A single dose that included 5 mg/kg of the carotenoid derivative was administered to each rat. (See FIG. 20, PK Study #CXPK07202). For each carotenoid derivative given to the rats in this example, the amount of all astaxanthin isomers, the amount of trans astaxanthin isomers, and the amount of cis astaxanthin isomers in the plasma was determined at predefined time intervals for 3 days (72 hours).

Compound: COC(=O)[C@H](c1ccccc1Cl)N1CCc2sccc2C1 [clopidogrel, reference compound]
effect on CaI-stimulated total nitric oxide release from HUVEC [1]: did not significantly change
effect on CaI-stimulated total peroxynitrite (OONO−) release from HUVEC [2]: did not significantly change
effect on CaI-stimulated NO/OONO− release ratio from HUVEC [3]: did not significantly change
total NO release from vascular platelets (vascular platelets; IP3 stimulation, homochiral astaxanthin 5.0 μM, clopidogrel 1.0 μM, controls 6.6±0.3, mean±S.D.): 10.2±0.4 molecules NO×10^6/platelet

Compound: CC1=C(/C=C/C(C)=C/C=C/C(C)=C/C=C/C=C(C)/C=C/C=C(C)/C=C/C2=C(C)C(=O)[C@@H](OC(=O)[C@@H](N)CCCCN)CC2(C)C)C(C)(C)C[C@H](OC(=O)[C@@H](N)CCCCN)C1=O.Cl.Cl.Cl.Cl (relative stereo) [ADL, all-trans 3S,3′S-astaxanthin diester dilysinate tetrahydrochloride salt]
free astaxanthin in rat plasma [4]: significant amount
absorption and metabolism to astaxanthin in plasma ([5]; dog, in vivo, po, 20 mg/kg): absorbed by the dogs and metabolized
absorption and metabolism to astaxanthin in plasma ([5]; dog, in vivo, po, 75 mg/kg): absorbed by the dogs and metabolized
absorption and metabolism to astaxanthin in plasma ([6]; iv, 5 mg/kg): absorbed by the rats and metabolized
absorption and metabolism to astaxanthin in plasma ([6]; po, 40 mg/kg): absorbed by the rats and metabolized

Compound: CCC(C)(C)C(=O)O[C@H]1C[C@@H](C)C=C2C=C[C@H](C)[C@H](CC[C@@H]3C[C@@H](O)CC(=O)O3)[C@H]21 [simvastatin, reference compound]
effect on platelet-derived NO release (vascular platelets; 1.0 μM, IP3 1.0 μM, FIG. 11): no effect

Compound: CC1=C(/C=C/C(C)=C/C=C/C(C)=C/C=C/C=C(C)/C=C/C=C(C)/C=C/C2=C(C)C(=O)[C@@H](OC(=O)CN)CC2(C)C)C(C)(C)C[C@H](OC(=O)CN)C1=O.Cl.Cl (relative stereo) [ADG, all-trans 3S,3′S-astaxanthin diester diglycinate dihydrochloride salt]
absorption and metabolism to astaxanthin in plasma ([5]; dog, in vivo, po, 20 mg/kg): absorbed by the dogs and metabolized
absorption and metabolism to astaxanthin in plasma ([6]; iv, 5 mg/kg): absorbed by the rats and metabolized
absorption and metabolism to astaxanthin in plasma ([6]; po, 40 mg/kg): absorbed by the rats and metabolized

Compound: CC(C=CC=C(C)C=CC1=C(C)C(=O)C(OC(=O)CCN)CC1(C)C)=CC=CC=C(C)C=CC=C(C)C=CC1=C(C)C(=O)C(OC(=O)CCN)CC1(C)C.Cl.Cl (stereo not drawn) [ADA, all-trans 3S,3′ S-astaxanthin diester di-beta-alanine dihydrochloride salt]
absorption and metabolism to astaxanthin in plasma ([5]; non-naïve dogs, single oral 20 mg/kg): absorbed by the dogs and metabolized

Next, values leading:

aqueous dispersibility (Aqueous dispersibility): 2.85 mg/mL
Compound: CC(C=CC=C(C)C=CC1=C(C)CC(OC(=O)CCC(=O)[O-])CC1(C)C)=CC=CC=C(C)C=CC=C(C)C=CC1C(C)=CC(OC(=O)CCC(=O)[O-])CC1(C)C.[Na+].[Na+] (centres unmarked)

free astaxanthin in rat plasma [4]: significant amount
absorption and metabolism to astaxanthin in plasma ([5]; dog, in vivo, po, 20 mg/kg): absorbed by the dogs and metabolized
Compound: CC1=C(/C=C/C(C)=C/C=C/C(C)=C/C=C/C=C(C)/C=C/C=C(C)/C=C/C2=C(C)C(=O)[C@@H](OC(=O)CCC(=O)[O-])CC2(C)C)C(C)(C)C[C@H](OC(=O)CCC(=O)[O-])C1=O.[Na+].[Na+] (relative stereo) [ADS, all-trans 3S,3′S-astaxanthin diester disuccinate disodium salt]

Source: US8063101B2, “Carotenoid analogs and derivatives for the prevention of platelet aggregation” (Cardax Pharmaceuticals, Inc., priority 2007, dated 2011)
